The text below walks through data of paper PMC5999399 (Journal of medicinal chemistry, 2017).

Test [1] has as its target T1, human MC3R (hMC3R) (Homo sapiens, UniProt P41968). The note with it: [125I]NDP-α-MSH displacement at 10 μM; ref previously published data; cited from earlier work.
For test [2], the target named is T2, human MC1R (hMC1R) (Homo sapiens, UniProt Q01726). The conditions noted are these: cAMP at 10 μM, in relation to MT-II; ref previously published data; cited from earlier work.
The target of test [3] is T3, human MC5R (hMC5R) (Homo sapiens, UniProt P33032). The conditions noted are these: cAMP at 10 μM, in relation to MT-II; ref previously published data; cited from earlier work.
The target of test [4] is T1, human MC3R (hMC3R). The note with it: ref previously published data, cited from earlier work; for hMC3R % max effect: cAMP at 10 μM, in relation to MT-II.
Test [5] has as its target T2, human MC1R (hMC1R). The note with it: [125I]NDP-α-MSH displacement at 10 μM; ref previously published data; cited from earlier work.
Test [6] addresses T3, human MC5R (hMC5R). The conditions noted are these: ref previously published data, cited from earlier work; for hMC5R % BE: [125I]NDP-α-MSH displacement at 10 μM.
Test [7] addresses T4, human MC4R (hMC4R) (Homo sapiens, UniProt P32245). The conditions noted are these: cAMP at 10 μM, in relation to MT-II; ref previously published data; cited from earlier work.
Test [8] concerns the target T4, human MC4R (hMC4R). The note with it: [125I]NDP-α-MSH displacement at 10 μM; ref previously published data; cited from earlier work.
Test [9] concerns the target T2, human MC1R (hMC1R). The test is described as follows: Adenylate cyclase. Format: cell-based. The conditions noted are these: EC50 ratio.

T4 sequence (P32245 whole entry): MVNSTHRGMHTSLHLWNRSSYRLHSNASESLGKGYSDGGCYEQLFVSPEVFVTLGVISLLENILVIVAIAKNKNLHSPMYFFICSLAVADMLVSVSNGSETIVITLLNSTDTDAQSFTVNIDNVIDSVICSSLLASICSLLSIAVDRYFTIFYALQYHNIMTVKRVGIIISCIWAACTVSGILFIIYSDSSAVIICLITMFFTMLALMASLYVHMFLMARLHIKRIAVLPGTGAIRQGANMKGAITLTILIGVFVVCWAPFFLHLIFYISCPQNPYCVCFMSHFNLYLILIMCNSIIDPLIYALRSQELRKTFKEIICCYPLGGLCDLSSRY
T2 sequence (Q01726 whole entry): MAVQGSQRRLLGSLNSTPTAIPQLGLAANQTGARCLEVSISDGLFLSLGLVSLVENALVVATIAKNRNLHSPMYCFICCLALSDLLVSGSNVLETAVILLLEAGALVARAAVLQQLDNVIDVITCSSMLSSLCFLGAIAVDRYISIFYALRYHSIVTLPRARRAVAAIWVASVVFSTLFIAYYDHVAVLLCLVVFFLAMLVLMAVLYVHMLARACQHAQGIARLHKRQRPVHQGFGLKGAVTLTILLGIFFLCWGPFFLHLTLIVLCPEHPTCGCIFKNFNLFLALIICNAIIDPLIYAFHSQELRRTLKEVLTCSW
T1 sequence (P41968 whole entry): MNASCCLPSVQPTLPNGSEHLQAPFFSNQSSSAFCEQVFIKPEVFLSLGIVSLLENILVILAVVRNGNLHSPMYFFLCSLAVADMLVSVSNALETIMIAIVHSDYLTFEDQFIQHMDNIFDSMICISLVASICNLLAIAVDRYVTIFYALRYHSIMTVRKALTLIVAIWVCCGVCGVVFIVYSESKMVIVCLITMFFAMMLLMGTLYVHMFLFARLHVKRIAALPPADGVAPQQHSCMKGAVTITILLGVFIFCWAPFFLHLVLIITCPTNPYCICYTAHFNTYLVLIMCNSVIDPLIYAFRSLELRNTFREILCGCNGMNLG
T3 sequence (P33032 whole entry): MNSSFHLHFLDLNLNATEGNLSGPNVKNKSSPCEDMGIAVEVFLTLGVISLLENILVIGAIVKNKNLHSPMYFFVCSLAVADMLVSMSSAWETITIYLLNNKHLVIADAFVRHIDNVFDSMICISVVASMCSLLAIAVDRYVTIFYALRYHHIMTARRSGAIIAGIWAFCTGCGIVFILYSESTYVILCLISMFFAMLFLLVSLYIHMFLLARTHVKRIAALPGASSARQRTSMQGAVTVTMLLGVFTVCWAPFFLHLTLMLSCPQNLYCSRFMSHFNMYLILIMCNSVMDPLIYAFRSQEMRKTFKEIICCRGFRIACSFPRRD

With “Ac-Ser-Tyr-Ser-Met-Glu-His-Phe-Arg-Trp-Gly-Lys-Pro-Val-NH2 [Compound 14]”, the “hMC3R % BE” value in test [1] was 100%. Besides, the “hMC1R % max effect” value in [2] is 100%. Also, the “hMC5R % max effect” value in [3] is reported as 100%. Also, the “hMC3R % max effect” value in test [4] is reported as 100%. For the same substance, in test [5], the “hMC1R % BE” value is listed as 100%. The “hMC5R % BE” value in test [6] is on record as 100%.

Regarding “Ac-Tyr^1-Val^2-Nle^3-Gly^4-His^5-D-Phe^6-Arg^7-Trp^8-Asp^9-Arg^10-Phe^11-Gly^12-NH2 [Compound 13]”, the “hMC3R % BE” value in test [1] is 100%. In addition, the “hMC1R % max effect” value in test [2] is given as 100%. Moreover, the “hMC5R % max effect” value in test [3] is on record as 100%. Also, the “hMC1R % BE” value in test [5] is on record as 100%. Also, the “hMC4R % max effect” value in test [7] is on record as 100%. Also, in test [6], the “hMC5R % BE” value is 100%. In addition, in test [8], the “hMC4R % BE” value was 100%.

With “H-Tyr-Val-Nle-Gly-His-D-Nal(2)-Arg-D-Trp-Asp-Arg-Phe-Gly-NH2 [Compound 1]”, in test [1], the “hMC3R % BE” value is recorded as 100%. The “hMC5R % max effect” value in test [3] is 6%. In [4], the “hMC3R % max effect” value is on record as 6%. In addition, in [4] (read-out: hMC3R EC50, cAMP accumulation), the EC50 (commonly the concentration giving half of the maximal effect) was 300 ± 6 nM. The “hMC5R % BE” value in [6] is 100%. Also, the IC50 (as a rule, the point on the concentration scale where inhibition reaches its midpoint) in test [6] (read-out: hMC5R IC50, 50% specific binding) was 3.5 ± 0.5 nM.

For the substance “H-Tyr^1-Val^2-Met^3-Gly^4-His^5-Phe^6-Arg^7-Trp^8–Asp^9-Arg^10-Phe^11-Gly^12-NH2 [Compound 12]”, the “hMC3R % BE” value in test [1] is recorded as 100%. The “hMC1R % max effect” value in test [2] is on record as 100%. Further, the “hMC1R % BE” value in test [5] is 100%. In addition, in test [9], the “increase in potency to hMC1R compared to γ-MSH” value is on record as 3 fold. In addition, in test [7], the “hMC4R % max effect” value is recorded as 76%. The “hMC5R % BE” value in [6] is 100%. Further, in test [8], the “hMC4R % BE” value is on record as 100%.
